Data taken from ChEMBL document CHEMBL1147209, “Relationship between quantum-chemical descriptors of proton dissociation and experimental acidity constants of various hydroxylated coumarins. Identification of the biologically active species for xanthine oxidase inhibition” (Eur J Med Chem, 2007).

These compounds were tested against Xanthine dehydrogenase/oxidase (Homo sapiens, UniProt P47989) (assay: Inhibition of xanthine oxidase).
Xanthine dehydrogenase/oxidase, sequence (P47989 whole entry): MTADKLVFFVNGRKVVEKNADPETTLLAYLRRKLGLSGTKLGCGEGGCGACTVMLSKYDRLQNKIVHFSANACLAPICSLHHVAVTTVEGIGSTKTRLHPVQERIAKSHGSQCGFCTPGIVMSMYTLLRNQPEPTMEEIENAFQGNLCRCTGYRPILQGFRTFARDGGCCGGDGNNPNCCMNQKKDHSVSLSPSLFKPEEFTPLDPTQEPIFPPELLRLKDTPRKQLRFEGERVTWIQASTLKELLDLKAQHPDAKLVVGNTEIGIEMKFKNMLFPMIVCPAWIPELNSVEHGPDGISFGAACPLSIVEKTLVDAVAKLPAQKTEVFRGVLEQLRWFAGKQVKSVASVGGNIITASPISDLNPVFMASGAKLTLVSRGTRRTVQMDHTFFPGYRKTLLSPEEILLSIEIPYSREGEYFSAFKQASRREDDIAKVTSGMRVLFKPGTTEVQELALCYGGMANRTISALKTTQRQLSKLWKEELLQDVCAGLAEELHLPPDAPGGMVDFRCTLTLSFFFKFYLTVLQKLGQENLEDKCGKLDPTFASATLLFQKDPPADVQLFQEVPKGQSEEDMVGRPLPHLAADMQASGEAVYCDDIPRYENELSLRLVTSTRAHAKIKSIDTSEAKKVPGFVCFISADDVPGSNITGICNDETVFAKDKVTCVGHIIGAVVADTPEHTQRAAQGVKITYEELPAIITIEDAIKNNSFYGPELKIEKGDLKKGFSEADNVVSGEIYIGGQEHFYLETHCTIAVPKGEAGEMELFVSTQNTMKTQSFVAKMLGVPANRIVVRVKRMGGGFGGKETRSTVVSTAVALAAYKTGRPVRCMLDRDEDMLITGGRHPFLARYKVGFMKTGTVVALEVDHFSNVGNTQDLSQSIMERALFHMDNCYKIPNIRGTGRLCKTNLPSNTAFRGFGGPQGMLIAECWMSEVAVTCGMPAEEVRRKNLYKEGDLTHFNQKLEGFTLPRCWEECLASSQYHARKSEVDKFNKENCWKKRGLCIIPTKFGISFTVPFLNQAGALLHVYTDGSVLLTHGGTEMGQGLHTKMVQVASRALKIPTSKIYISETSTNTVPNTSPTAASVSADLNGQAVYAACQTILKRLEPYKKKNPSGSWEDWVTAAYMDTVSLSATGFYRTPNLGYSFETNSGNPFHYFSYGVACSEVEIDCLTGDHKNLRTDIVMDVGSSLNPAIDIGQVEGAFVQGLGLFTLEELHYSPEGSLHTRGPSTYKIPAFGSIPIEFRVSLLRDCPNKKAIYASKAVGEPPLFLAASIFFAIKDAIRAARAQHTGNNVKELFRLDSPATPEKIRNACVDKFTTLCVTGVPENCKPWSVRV

SMILES | IC50 [µM] | Activity
O=c1ccc2ccc(O)cc2o1 [UMBELLIFERONE] | 236 | 
O=c1ccc2ccc(O)c(O)c2o1 [DAPHNETIN] | 390 | 
Cc1cc(=O)oc2cc(O)c(O)cc12 [4-METHYLESCULETIN] | 246 | 
O=c1ccc2cc(O)c(O)cc2o1 [ESCULETIN] | 8.2 | 
COc1cc2oc(=O)ccc2cc1O [ISOSCOPOLETIN] | 138 | 
O=c1oc2ccccc2cc1O [3-HYDROXYCOUMARIN] | 131 | 
O=c1cc(O)c2ccccc2o1 [4-HYDROXYCOUMARINS] | 195 | 
COc1cc2ccc(=O)oc2cc1O [SCOPOLETIN] |  | Not Active
